Each compound was assayed against KAT2A (Homo sapiens, UniProt Q92830) (assay: KAT2A degradation, Western Blot (Jess), MOLM-13 cells). Conditions: MOLM-13 cells, KAT2A, 24 h, Western Blot, vs DMSO; read-out: KAT2A MOLM-13 DC50.
Assay type: cell-based
Design: degrader, Western blot
Experimental: MOLM-13 cells or NCI-H1048 cells were used for Western Blot analysis of KAT2A degradation. KAT2B degradation can be measured in a similar manner with NCI-H1048 cells.
MOLM-13 cells were maintained at 37° C. in 5% CO2 and 90% humidity in RPMI 1640 supplemented with 20% fetal bovine serum (FBS) and 1× penicillin/streptomycin. Cells were plated in full media at 1-2 million cells/2 mL in a 6-well tissue culture treated plate with or without compounds for 24 h at 37° C. in 5% CO2.
MOLM-13 cells or NCI-H1048 cells were washed with PBS, then lysed with RIPA buffer containing 1×protease and phosphatase inhibitors (SantaCruz Biotechnologies Cat #sc-24948A). Protein was isolated by centrifugation at 12,000×g for 10 minutes at 4° C. and supernatant was collected. Protein was quantified via Bradford assay. Samples were diluted to 4 μg lysate in 16 μL RIPA buffer and then 4 μL of Jess Sample Buffer. Samples were heated at 95° C. for 5 minutes. Samples were loaded onto 12-230 kDa Jess™ Separation Module, 8×25 capillary cartridges (SM-W004, Biotechne). Antibodies loaded were: Primary antibody for KAT2A (GCN5L2 (C26A10) Rabbit mAb (3305, CST)) and for KAT2B (PCAF (C14G9)) Rabbit mAb (3378, CST) at 1:1000 and Anti-Rabbit Detection Module for Jess™ (Cat No #DM-001, Biotechne). Signal was detected by chemiluminescence.
DC50 values were determined from percent reduction of protein as compared to the DMSO control.

KAT2A, sequence (Q92830 whole entry): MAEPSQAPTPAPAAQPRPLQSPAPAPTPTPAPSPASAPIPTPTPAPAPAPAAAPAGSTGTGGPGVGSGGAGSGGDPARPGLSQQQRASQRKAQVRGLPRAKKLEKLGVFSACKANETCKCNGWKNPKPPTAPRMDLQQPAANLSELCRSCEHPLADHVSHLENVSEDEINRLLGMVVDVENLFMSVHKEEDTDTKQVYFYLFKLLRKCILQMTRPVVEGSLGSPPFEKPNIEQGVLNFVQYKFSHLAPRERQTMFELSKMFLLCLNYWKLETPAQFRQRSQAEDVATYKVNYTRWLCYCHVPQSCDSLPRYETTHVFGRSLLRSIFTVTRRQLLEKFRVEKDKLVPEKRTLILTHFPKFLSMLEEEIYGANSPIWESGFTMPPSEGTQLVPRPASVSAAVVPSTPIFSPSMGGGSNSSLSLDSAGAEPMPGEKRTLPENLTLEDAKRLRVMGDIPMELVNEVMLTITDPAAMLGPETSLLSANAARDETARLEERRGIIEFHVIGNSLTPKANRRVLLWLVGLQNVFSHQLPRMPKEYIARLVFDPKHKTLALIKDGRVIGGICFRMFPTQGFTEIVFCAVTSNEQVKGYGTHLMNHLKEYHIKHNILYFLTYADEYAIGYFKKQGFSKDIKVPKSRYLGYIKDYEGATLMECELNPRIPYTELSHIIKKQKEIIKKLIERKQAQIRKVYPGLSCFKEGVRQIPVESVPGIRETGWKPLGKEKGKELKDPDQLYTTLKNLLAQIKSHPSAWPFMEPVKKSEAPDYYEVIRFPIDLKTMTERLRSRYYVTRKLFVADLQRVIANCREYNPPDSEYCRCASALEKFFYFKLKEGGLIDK

Structure (SMILES)	DC50 [nM]
CN1C[C@H](Nc2cnn(C)c(=O)c2Br)C[C@H](c2ccc(C(=O)N3CCC(c4cccc(CN5CCC(=O)NC5=O)c4)CC3)cc2)C1 [Compound 140]	> 30
CN1C[C@H](Nc2cnn(C)c(=O)c2Cl)C[C@H](c2ccc(CN3CCN(Cc4ccc5c(c4)CN(C4CCC(=O)NC4=O)C5=O)CC3)cc2)C1 (some centres unmarked) [Compound 75]	1 to 30
CN1C[C@H](Nc2cnn(C)c(=O)c2Br)C[C@H](c2ccc(C(=O)OCC3CCN(c4cccc5c4C(=O)N(C4CCC(=O)NC4=O)C5=O)CC3)cc2)C1 (some centres unmarked) [Compound 32]	1 to 30
CN1C[C@H](Nc2cnn(C)c(=O)c2Br)C[C@H](c2ccc(CN3CCN(c4ccc5c(c4)oc(=O)n5C4CCC(=O)NC4=O)CC3)cc2)C1 (some centres unmarked) [Compound 180]	< 1
CN1C[C@H](Nc2cnn(C)c(=O)c2Br)C[C@H](c2ccc(C(=O)N3CC(Oc4cccc5c4C(=O)N(C4CCC(=O)NC4=O)C5=O)C3)cc2)C1 (some centres unmarked) [Compound 62]	1 to 30
CN1C[C@H](Nc2cnn(C)c(=O)c2Br)C[C@H](c2ccc(C(=O)N3CCN(c4cccc5c4C(=O)N(C4CCC(=O)NC4=O)C5=O)CC3)cc2)C1 (some centres unmarked) [Compound 14]	< 1
CN1C[C@H](Nc2cnn(C)c(=O)c2Br)C[C@H](c2ccc(C(=O)N3CCC(c4ccc(C5CCC(=O)NC5=O)cc4)CC3)cc2)C1 (some centres unmarked) [Compound 81]	1 to 30
CN1C[C@H](Nc2cnn(C)c(=O)c2Br)C[C@H](c2ccc(CN3CC4(C3)CN(c3ccc(C5CCC(=O)NC5=O)cc3)C4)cc2)C1 (some centres unmarked) [Compound 159]	1 to 30
CN1C[C@H](Nc2cnn(C)c(=O)c2Br)C[C@H](c2ccc(CN3CCN(Cc4cccc5c4C(=O)N(C4CCC(=O)NC4=O)C5=O)CC3)cc2)C1 (some centres unmarked) [Compound 58]	1 to 30
CN1C[C@H](Nc2cnn(C)c(=O)c2Br)C[C@H](c2ccc(CN3CCC(c4ccc(OC5CCC(=O)NC5=O)cc4)CC3)cc2)C1 (some centres unmarked) [Compound 173]	1 to 30
CN1C[C@H](Nc2cnn(C)c(=O)c2Cl)C[C@H](c2ccc(CN3CCN(c4ccc(C5CCC(=O)NC5=O)cc4)CC3)cc2)C1 (some centres unmarked) [Compound 104]	1 to 30
CN1C[C@H](Nc2cnn(C)c(=O)c2Br)C[C@H](c2ccc(C(=O)NCCCCCCOc3cccc4c3C(=O)N(C3CCC(=O)NC3=O)C4=O)cc2)C1 (some centres unmarked) [Compound 41]	< 1
CN1C[C@H](Nc2cnn(C)c(=O)c2Br)C[C@H](c2ccc(C(=O)N3CCC(CN4CCC(c5ccc6c(c5)C(=O)N(C5CCC(=O)NC5=O)C6=O)CC4)CC3)cc2)C1 (some centres unmarked) [Compound 107]	< 1
CN1C[C@H](Nc2cnn(C)c(=O)c2Cl)C[C@H](c2ccc(CN3CCC(c4ccc5c(c4)CN(C4CCC(=O)NC4=O)C5=O)CC3)cc2)C1 (some centres unmarked) [Compound 70]	< 1
CN1C[C@H](Nc2cnn(C)c(=O)c2Br)C[C@H](c2ccc(CN3CCC4(CC3)CN(c3cccc(C5CCC(=O)NC5=O)c3)C4)cc2)C1 (some centres unmarked) [Compound 127]	1 to 30
CN1C[C@H](Nc2cnn(C)c(=O)c2Br)C[C@H](c2ccc(C(=O)N(C)CCOc3cccc4c3C(=O)N(C3CCC(=O)NC3=O)C4=O)cc2)C1 (some centres unmarked) [Compound 44]	1 to 30
CN1C[C@H](Nc2cnn(C)c(=O)c2Br)C[C@H](c2ccc(CN3CCN(c4ccc(C5CCC(=O)NC5=O)cc4)CC3)cc2)C1 (some centres unmarked) [Compound 69]	< 1
CN1C[C@H](Nc2cnn(C)c(=O)c2Br)C[C@H](c2ccc(C(=O)N3CC(Oc4ccc5c(c4)CN(C4CCC(=O)NC4=O)C5=O)C3)cc2)C1 (some centres unmarked) [Compound 93]	< 1
CN1C[C@H](Nc2cnn(C)c(=O)c2Br)C[C@H](c2ccc(CN3CCC4(CCN(c5ccc6c(c5)C(=O)N(C5CCC(=O)NC5=O)C6=O)C4)C3)cc2)C1 (some centres unmarked) [Compound 109]	< 1

Structure (SMILES)	DC50 [nM]
C#Cc1c(N[C@@H]2C[C@H](c3ccc(CN4CCC(c5ccc6c(c5)CN(C5CCC(=O)NC5=O)C6=O)CC4)cc3)CN(C)C2)cnn(C)c1=O (some centres unmarked) [Compound 171]	> 30
CN1C[C@H](Nc2ccn(C)c(=O)c2Cl)C[C@H](c2ccc(COc3ccc4c(c3)C(=O)N(C3CCC(=O)NC3=O)C4=O)cc2)C1 (some centres unmarked) [Compound 105]	1 to 30
CN1C[C@H](Nc2cnn(C)c(=O)c2Br)C[C@H](c2ccc(C(=O)N3CCN(CC4CCN(C5CCC(=O)NC5=O)CC4)CC3)cc2)C1 (some centres unmarked) [Compound 177]	> 30
CN1C[C@H](Nc2cnn(C)c(=O)c2Br)C[C@H](c2ccc(CN3CCC(c4ccc5c(c4)CN(C4CCC(=O)NC4=O)C5=O)CC3)cc2)C1 (some centres unmarked) [Compound 66]	< 1
CN1C[C@H](Nc2cnn(C)c(=O)c2Br)C[C@H](c2ccc(C(=O)N3CCC4(CC3)CN(c3ccc5c(c3)C(=O)N(C3CCC(=O)NC3=O)C5=O)C4)cc2)C1 (some centres unmarked) [Compound 97]	< 1
CN1C[C@H](Nc2cnn(C)c(=O)c2Br)C[C@H](c2ccc(C(=O)N3CCC4(CCN(CC5CCN(c6ccc7c(c6)C(=O)N(C6CCC(=O)NC6=O)C7=O)CC5)C4)C3)cc2)C1 (some centres unmarked) [Compound 118]	< 1
CN1C[C@H](Nc2cnn(C)c(=O)c2Br)C[C@H](c2ccc(C(=O)N3CCC(Oc4ccc(F)c(C5CCC(=O)NC5=O)c4)CC3)cc2)C1 (some centres unmarked) [Compound 131]	1 to 30
CN1C[C@H](Nc2cnn(C)c(=O)c2Br)C[C@H](c2ccc(C(=O)N3CCC(C#CCOc4ccc5c(c4)C(=O)N(C4CCC(=O)NC4=O)C5=O)CC3)cc2)C1 (some centres unmarked) [Compound 54]	< 1
CN1C[C@H](Nc2cnn(C)c(=O)c2Br)C[C@H](c2ccc(CN3CCC4(CC3)CCN(c3ccc(F)c(C5CCC(=O)NC5=O)c3)CC4)cc2)C1 (some centres unmarked) [Compound 174]	< 1
CN1C[C@H](Nc2cnn(C)c(=O)c2Br)C[C@H](c2ccc(CN3CC(Oc4ccc5c(c4)C(=O)N(C4CCC(=O)NC4=O)C5=O)C3)cc2)C1 (some centres unmarked) [Compound 95]	< 1
CN1C[C@H](Nc2cnn(C)c(=O)c2Br)C[C@H](c2ccc(C(=O)N3CCC4(CC3)CCN(c3cccc(C5CCC(=O)NC5=O)c3)CC4)cc2)C1 (some centres unmarked) [Compound 135]	< 1
CN1C[C@H](Nc2cnn(C)c(=O)c2Br)C[C@H](c2ccc(C(=O)NCCOCC(=O)Nc3ccc4c(c3)CN(C3CCC(=O)NC3=O)C4=O)cc2)C1 (some centres unmarked) [Compound 4]	> 30
CN1C[C@H](Nc2cnn(C)c(=O)c2Br)C[C@H](c2ccc(C(=O)N3CCN(Cc4cccc(C5CCC(=O)NC5=O)c4)CC3)cc2)C1 (some centres unmarked) [Compound 100]	< 1
CN1C[C@H](Nc2cnn(C)c(=O)c2Br)C[C@H](c2ccc(C(=O)N3CCN(c4ccc(F)c(C5CCC(=O)NC5=O)c4)CC3)cc2)C1 (some centres unmarked) [Compound 143]	< 1
CN1C[C@H](Nc2cnn(C)c(=O)c2Br)C[C@H](c2ccc(C(=O)N3CCN(Cc4ccc(C(=O)Nc5ccc6c(c5)C(=O)N(C5CCC(=O)NC5=O)C6=O)cc4)CC3)cc2)C1 (some centres unmarked) [Compound 61]	1 to 30
CN1C[C@H](Nc2cnn(C)c(=O)c2Br)C[C@H](c2ccc(C(=O)N3CCN(Cc4ccc(Oc5cccc6c5C(=O)N(C5CCC(=O)NC5=O)C6=O)cc4)CC3)cc2)C1 (some centres unmarked) [Compound 49]	< 1
CN1C[C@H](Nc2cnn(C)c(=O)c2Br)C[C@H](c2ccc(C(=O)N3CCC4(CC3)CN(c3cccc(C5CCC(=O)NC5=O)c3)C4)cc2)C1 (some centres unmarked) [Compound 128]	1 to 30
CN1C[C@H](Nc2cnn(C)c(=O)c2Br)C[C@H](c2ccc(CN3CCC4(CC3)CCN(c3ccc(C5CCC(=O)NC5=O)cc3F)CC4)cc2)C1 (some centres unmarked) [Compound 158]	< 1
CN1C[C@H](Nc2cnn(C)c(=O)c2Cl)C[C@H](c2ccc(C(=O)N3CCN(c4ccc5c(c4)C(=O)N(C4CCC(=O)NC4=O)C5=O)CC3)cc2)C1 (some centres unmarked) [Compound 176]	< 1

Reference: patent publication US20260306640A1, “TECHNOLOGIES TARGETING CELL STATES” (Auron Therapeutics, Inc., priority 2023, published 2026)
